ChEMBL document CHEMBL1201862, “PubChem BioAssay data set” (2004)
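Cultured in 96-well plates, cells were exposed to test compound for 48 hours across five concentrations. GI50 is the concentration that inhibits growth by half.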 Active and inactive are the calls of the source. Cut-off read from the data, not from the text of the source: active = GI50 up to about 1.1 µM and inactive = higher.

Key:
Assay in all cases: NCI tumour cell line growth inhibition, 48 h
NCI-H226 = test system: NCI-H226
SK-MEL-5 = test system: SK-MEL-5
SN12C = test system: SN12C
LOX IMVI = test system: LOX IMVI
NCI/ADR-RES = test system: NCI/ADR-RES
SF-295 = test system: SF-295
CAKI-1 = test system: CAKI-1
SW-620 = test system: SW-620
IGROV-1 = test system: IGROV-1
NCI-H460 = test system: NCI-H460
MCF7 = test system: MCF7
OVCAR-8 = test system: OVCAR-8
DU-145 = test system: DU-145
HOP-92 = test system: HOP-92
MDA-MB-435 = test system: MDA-MB-435
UO-31 = test system: UO-31
Malme-3M = test system: Malme-3M
SK-MEL-2 = test system: SK-MEL-2
K562 = test system: K562
CCRF-CEM = test system: CCRF-CEM

Measured: GI50

CN1C(=O)NC(=O)/C(=C\Nc2ncccn2)C1=O
inactive: NCI-H226 > 100 µM | SK-MEL-5 > 100 µM | SN12C > 100 µM | LOX IMVI > 100 µM | NCI/ADR-RES > 100 µM | SF-295 > 100 µM | CAKI-1 > 100 µM | SW-620 > 100 µM | IGROV-1 > 100 µM | NCI-H460 > 100 µM | MCF7 > 100 µM | OVCAR-8 > 100 µM | DU-145 > 100 µM | HOP-92 > 100 µM | MDA-MB-435 > 100 µM | UO-31 > 100 µM | Malme-3M > 100 µM | SK-MEL-2 > 100 µM

CC(C)OC(=O)C1=C2c3ncccc3C(=O)N2[C@@H](Cl)[C@H](Cl)[C@H]1Cl
inactive: NCI-H226 > 100 µM | SK-MEL-5 83 µM | SN12C 21.8 µM | LOX IMVI 68.9 µM | NCI/ADR-RES > 100 µM | SF-295 > 100 µM | CAKI-1 > 100 µM | SW-620 34.6 µM | K562 30.5 µM | IGROV-1 31.1 µM | NCI-H460 > 100 µM | MCF7 39.1 µM | OVCAR-8 31.7 µM | DU-145 > 100 µM | HOP-92 46.3 µM | MDA-MB-435 81.1 µM | UO-31 > 100 µM | Malme-3M 28.8 µM | SK-MEL-2 > 100 µM

CCCCCCCCCCCCCCCCOCC(CC(F)(F)P(=O)(OCC)OCC)OC(C)=O (stereo unspecified)
inactive: NCI-H226 14.4 µM | SK-MEL-5 21.1 µM | SN12C 19.7 µM | NCI/ADR-RES 16.3 µM | SF-295 11.6 µM | CAKI-1 16.6 µM | SW-620 14.8 µM | K562 14.1 µM | IGROV-1 8.49 µM | NCI-H460 10.7 µM | MCF7 15.8 µM | DU-145 15.4 µM | HOP-92 10.3 µM | MDA-MB-435 18.6 µM | UO-31 16 µM | Malme-3M 10.6 µM | SK-MEL-2 19.6 µM

O=C(Nc1sccc1S(=O)(=O)c1ccccc1)c1ccccc1
inactive: NCI-H226 > 100 µM | SK-MEL-5 > 79.3 µM | SN12C > 100 µM | LOX IMVI > 100 µM | NCI/ADR-RES > 100 µM | SF-295 > 100 µM | CAKI-1 > 100 µM | SW-620 > 84.3 µM | K562 1.91 µM | IGROV-1 > 100 µM | NCI-H460 > 31.6 µM | MCF7 > 100 µM | OVCAR-8 > 100 µM | DU-145 > 100 µM | HOP-92 > 100 µM | MDA-MB-435 3.69 µM | UO-31 > 100 µM | Malme-3M > 100 µM | SK-MEL-2 > 100 µM

Brc1c(C#CCC(c2ccccc2)(c2ccccc2)c2ccccc2)ccc(C#CCC(c2ccccc2)(c2ccccc2)c2ccccc2)c1Br
inactive: NCI-H226 > 100 µM | SK-MEL-5 > 100 µM | SN12C > 100 µM | NCI/ADR-RES > 100 µM | SF-295 > 100 µM | CAKI-1 > 100 µM | SW-620 > 100 µM | K562 > 100 µM | IGROV-1 > 100 µM | NCI-H460 > 100 µM | MCF7 > 100 µM | OVCAR-8 > 100 µM | DU-145 > 100 µM | HOP-92 > 100 µM | MDA-MB-435 > 100 µM | UO-31 > 100 µM | Malme-3M > 100 µM | SK-MEL-2 > 100 µM | CCRF-CEM > 100 µM

NC1=C(N2CCOCC2)C(=O)NC2=N/C(=C\c3ccccc3O)C(=O)N21
inactive: NCI-H226 59.6 µM | SK-MEL-5 73.6 µM | SN12C > 100 µM | LOX IMVI > 100 µM | NCI/ADR-RES > 100 µM | SF-295 > 100 µM | CAKI-1 > 100 µM | SW-620 > 100 µM | K562 52.2 µM | IGROV-1 > 100 µM | NCI-H460 89.3 µM | MCF7 > 100 µM | OVCAR-8 > 100 µM | DU-145 > 100 µM | HOP-92 51.8 µM | MDA-MB-435 > 100 µM | UO-31 > 100 µM | Malme-3M 84.3 µM | CCRF-CEM > 100 µM
